Experimental data taken from patent EP1131297B1, “CERTAIN SUBSTITUTED CAPROLACTAMS, PHARMACEUTICAL COMPOSITIONS CONTAINING THEM AND THEIR USE IN TREATING TUMORS” (Novartis AG, priority 1998, dated 2000).
Converted amounts (≈) assume the structure as drawn.

Assays:
[1] = test system: MDA-MB-435 tumor xenografts; experiment: Human tumor xenograft growth inhibition in athymic nude mouse model; type: in vivo, athymic (nu/nu) mice; conditions: 3X/week for 3 weeks
Method: The histologic tumor type employed was MDA-MB-435 breast carcinoma.
Positive controls are carried out with doxorubicin administered 3 times per week i.v.
Anti-tumor activity was expressed as %T/C (Δ MTV of treated group ö Δ MTV of control group X100).

[2] = test system: MDA-MB-435 breast carcinoma; experiment: Anchorage Dependent Growth Monolayer Assay (ADGMA), MTS readout; type: cell-based; conditions: Homo sapiens, MDA-MB-435, 72 h, average ± S.D., 3-day exposure, A490
Description: As indicated above, all of the compounds of formula I, and their corresponding pharmaceutically acceptable acid addition salts, are anti-tumor agents and are, therefore, useful in inhibiting the growth of various lymphomas, sarcomas, carcinomas, myelomas, and leukemia cell lines. […] This assay was adapted from the 60 cell line assay used by the National Cancer Institute (NCI) with the following modifications: 1) a single cell line representative for the important tumor type, viz., MDA-MB-435 breast carcinoma was utilized; 2) a tetrazolium derivative, viz., MTS, was utilized to determine cell density.
The ADGMA compares the number of viable cells following a 3-day exposure to a test compound relative to a number of cells present at the time the test compound was added. […] The absorbance at 490 nm (A490) of the formazan derivative is proportional to the number of viable cells. The IC50 for a test compound is the concentration of compound required to reduce the final cell number to 50% of the final control cell number. If cell proliferation is inhibited, the assay further defines compounds as cytostatic (cell number after 3-day compound incubation >cell number at time of compound addition) or cytotoxic (cell number after 3-day compound incubation <cell number at time of compound addition).
The MDA-MB-435 breast carcinoma line was obtained from the American Type Culture Collection (ATCC) and used between passages 4-20 following thawing. MDA-MB-435 breast carcinoma was maintained and plated in DME/F12 medium containing 10% fetal bovine serum, 15 mM HEPES (pH=7.4), penicillin 100 units/mL, and streptomycin 100 µg/mL.
Cell lines are trypsinized and counted using a Coulter counter to determine plating densities. Cells are then plated in their respective maintenance media (100 µL/well) in 96 well plates at the following densities: MDA-MB-435, 3,000 cells/well. The number of cells plates as determined in preliminary experiments, results in cell densities of 75-90% of confluency by 4 days after plating. Initial cell densities, assayed one day after plating, are roughly 0.15-0.20 absorbance units greater than the media blank. Ninety-six well plates are seeded on day 0 and the test compounds are added on day 1. A control plate is created for each cell line that receives media only in row A and cells in row B. One day following plating, test compounds are added (in a final volume of 100 µL) to the test plates. Control plates receive 10 µL MTS mixture (prepared fresh on day of addition to cell plates at a ratio of 10 µL of a 0.92 mg/mL solution of PMS to a 190 µL of a 2 mg/mL solution of MTS) and 100 µL media. A490 of control plates is read 4h after MTS addition to determine initial cell density values for each cell line. Three days after addition of test compound, 10 µL/well of MTS mixture is added to the test plates and A490 is read 4h later. A490 values for wells containing cells are corrected for media absorbance, then normalized to initial density readings to determine percent net growth. IC50 values are determined from graphs of percent net growth as a function of compound concentration. Percent net growth is calculated as (Cell + Drug A490 - Initial A490/Cell + Drug Vehicle A490 - Initial A490).

physchem = conditions: water
[3] = Mus musculus, MDA-MB-435, iv, 504 h, 10 µmol/kg i.v., * = statistically significant (p=<0.05), read-out: %T/C
[4] = Mus musculus, MDA-MB-435, iv, 504 h, 33 µmol/kg i.v., * = statistically significant (p=<0.05), read-out: %T/C

| Structure (SMILES) | Dead/Total ([1]; 10 µmol/kg i.v.) | Δ MTV ([1]; 10 µmol/kg i.v.) | Dead/Total ([1]; 33 µmol/kg i.v.) | Δ MTV ([1]; 33 µmol/kg i.v.) | response vs control in vivo at 10 µmol/kg [1, 3] | response vs control in vivo at 33 µmol/kg [1, 4] | solubility (Water solubility) | IC50 [2] | Dead/Total ([1]; 100 µmol/kg i.v.) | Δ MTV ([1]; 100 µmol/kg i.v.) | response vs control in vivo at 100 µmol/kg ([1]; Mus musculus, MDA-MB-435, iv, 504 h, 100 µmol/kg i.v., * = statistically significant (p=<0.05), read-out: %T/C) | solubility (physchem) |
| --- | --- | --- | --- | --- | --- | --- | --- | --- | --- | --- | --- | --- |
| CO[C@@H](C(=O)N[C@H]1CC[C@@H](OC(=O)C2CCCC2)CNC1=O)[C@H](O)[C@@H](O)[C@H](O)/C=C/C(C)(C)C [Ex. 2, (2R, 3R, 4S, 5R, 6E)-3,4,5-trihydroxy-2-methoxy-8,8-dimethyl-N-[(3S, 6R)-hexahydro-2-oxo-6-(cyclopentylcarbonyl)oxy-2H-azepin-3-yl]non-6-enamide] | 0/8 | 94 mm^3 | 0/8 | 19 mm^3 | 67% | 13% | 18000 µg/mL (≈ 37.1 mM) | 0.115 ± 0.04 µM |  |  |  |  |
| CO[C@@H](C(=O)N[C@H]1CC[C@@H](OC(=O)CCc2ccccc2)CNC1=O)[C@H](O)[C@@H](O)[C@H](O)/C=C/C(C)(C)C [Ex. 4, (2R, 3R, 4S, 5R, 6E)-3,4,5-trihydroxy-2-methoxy-8,8-dimethyl-N-[(3S, 6R)-hexahydro-2-oxo-6-(1-oxo-3-phenylpropoxy)-2H-azepin-3-yl]non-6-enamide] | 0/8 | 93 mm^3 | 0/8 | 21 mm^3 | 53% | 12% |  | 0.01 ± 0.01 µM | 0/8 | -23 mm^3 | -13% | 800 µg/mL (≈ 1.54 mM) |
